Source: article PMC10934121 (Molecules, 2024)
Values joined by “and” are separate entries in the source; they are usually repeats but may differ in a detail not shown here. Equal values may be shown once.

Tests used:
monoamine oxidase = settings: cited from earlier work
[1] = Time-resolved concentrations of indole and its metabolites in organs after oral administration of indole (HPLC/MS); type: in vivo, C57BL/6J mice; settings: for Tmax: C57BL/6JRj, mouse, in vivo, 350 mg/kg
Description: (§1) All animal testing was performed with the European Communities Council Directive 2010/63/E.U. guidelines and approved by the Lithuania State Food and Veterinary Service, Animal Ethics Experimentation Committee (project G2-244). C57BL/6JRj mouse line animals (Janvier Labs, Le Genest-Saint-Isle, France) were used for all procedures. Before the experiment, animals were housed in groups under a 12 h light–dark cycle with a temperature of 21 ± 1 °C and humidity of 55 ± 10%. The experiment was conducted in 3 major phases (Figure 8).
Animals were starved for 1 h before the administration of the compounds. […] The animals then were housed in single cages and culled at different time points (30 min, 1 h, 2 h, 4 h, and 6 h). The organs were immediately extracted on ice and stored at –80 °C until further analysis. The inside of the intestines was cleaned before freezing. 3-Hydroxyindolin-2-one was administered by gavage at three doses (100 mg/kg, 200 mg/kg, and 400 mg/kg). The animals were culled 30 min after the administration. The organs were immediately removed on ice and stored at –80 °C until further analysis.
Organ samples were thawed, weighed, and homogenized (3 cycles ×30 s, using Benchmark the BeadBug 6 homogenizer, Sayreville, NJ, USA) in 1 mL of deionized water containing different concentrations of 1-methylindolin-2-one as an internal standard. Plasma samples were not homogenized and were subjected to liquid–liquid extraction directly. Organ homogenates were centrifuged at 16,000× g for 10 min at 4 °C. The supernatants were extracted three times with equal amounts of ethyl acetate. All three extracts were pooled and evaporated under reduced pressure (AES2000 SpeedVAC, Savant, Thermo Fisher Scientific, Waltham, MA, USA). The dried material was dissolved in 100 μL 50% methanol by vigorous shaking and centrifugation at 16,000× g for 5 min. The supernatant was subjected to HPLC/MS analysis.
(§2) Organ extracts were analyzed by HPLC/MS as described in [20]. […] Limits of detection (LOD) for HPLC determination of the metabolite concentrations were determined by using different concentrations of standard solutions and following the same extraction protocol as described above.

[2] = Detection of 13C isotope-carrying metabolites after oral stable isotope-carrying indole (HPLC/MS); type: in vivo, C57BL/6J mice; settings: 2 h after gavage of 13C (C2) indole; N = 1
Description: Since indole is produced endogenously by the gut microbiota from dietary compounds, it is possible that the metabolites identified in the organ extracts were produced from endogenous indole or other precursors rather than the exogenously supplied indole. […] We detected heavier isotopes of indolin-2-one and 3-hydroxyindolin-2-one in the brain, liver, cecum, small intestine, and colon 2 h after administration (Figure 4, Figures S1–S15). This confirmed the previous experiment and provided direct evidence that indole in the gut is a substrate for several metabolites that spread throughout the body and even to the brain.
as §1, with “The experiment was conducted in 3 major phases (Figure 8).” left out
as §2

[3] = Plasma and brain concentration after oral administration of 3-hydroxyindolin-2-one; type: in vivo, C57BL/6J mice; settings: 30 min after oral 3-hydroxyindolin-2-one 100, 200, 400 mg/kg
Description: as §1
Animals were starved for 1 h before the administration of the compounds. […] The animals then were housed in single cages and culled at different time points (30 min, 1 h, 2 h, 4 h, and 6 h). The organs were immediately extracted on ice and stored at –80 °C until further analysis. The inside of the intestines was cleaned before freezing. 3-Hydroxyindolin-2-one was administered by gavage at three doses (100 mg/kg, 200 mg/kg, and 400 mg/kg). The animals were culled 30 min after the administration. The organs were immediately removed on ice and stored at –80 °C until further analysis. […]
as §2

acetylcholinesterase = settings: cited from earlier work
CYP2E1 = test: Gene expression by real-time PCR after indole administration; type: in vivo, C57BL/6J mice; settings: liver
Description: as §1
(§3) The total RNA was isolated from the mice’s brain medulla and liver tissues using the TRIzol™ Plus RNA Purification Kit according to the manufacturer’s protocol (Thermo Fisher Scientific, Vilnius, Lithuania). To remove gDNA, samples were treated with dsDNase reagent (Thermo Fisher Scientific, Lithuania). cDNA was synthesized using a High-Capacity cDNA Reverse Transcription kit (Thermo Fisher Scientific, Lithuania) according to the manufacturer’s instructions. The expression of CYP1A2, CYP2E1, CYP2A5, CYP2C29, CBR1, CBR3, and GAPDH was analyzed by the QuantStudio™ 3 Real-Time PCR System (Thermo Fisher Scientific, Lithuania), using SYBR™ Green PCR Master Mix (Thermo Fisher Scientific, Lithuania). The following primer sequences were used: Cyp2c29_FW (5′-[…]-3′), Cyp2c29_RV (5′-[…]-3′), Cyp2a5_FW (5′-[…]-3′), Cyp2a5_RV (5′-[…]-3′), Cbr3_FW (5′-[…]-3′), Cbr3_RV (5′-[…]-3′), Cyp1a2_FW (5′-[…]-3′), Cyp1a2_RV (5′-[…]-3′), Cyp2e1_FW (5′-[…]-3′), Cyp2e1_RV (5′-[…]-3′), GAPDH_FW (5′-[…]-3′), GAPDH_RV (5′-[…]-3′), Cbr1_FW (5′-[…]-3′), Cbr1_RV (5′-[…]-3′). All samples were run in duplicates. Ct values were normalized to GAPDH using the delta–delta Ct method.

CBR1 = test: as above; type: in vivo, C57BL/6J mice
Description: as §1, §3

CYP1A2 = test: as above; type: in vivo, C57BL/6J mice; settings: liver, 1 h after indole administration, increasing with time
Description: as §1, §3

CBR3 = test: as above; type: in vivo, C57BL/6J mice; settings: for CBR3 expression increase: liver
Description: as §1, §3

[4] = cited from earlier work
[5] = design: method as in PMID 9572285; settings: cited from earlier work
[6] = 30 min after oral indole 350 mg/kg, individual mice (samples 1-2)
[7] = 30 min after oral indole 350 mg/kg, individual mice (samples 1-3)
[8] = 1 h after oral indole 350 mg/kg, individual mice (samples 1-3)
[9] = 2 h after oral indole 350 mg/kg, individual mice (samples 1-3)
[10] = 4 h after oral indole 350 mg/kg, individual mice (samples 1-3)
[11] = 6 h after oral indole 350 mg/kg, individual mice (samples 1-3)

O=C1Nc2ccccc2C1O (stereo not shown) [3-hydroxyindolin-2-one, 3-hydroxy-1,3-dihydro-2H-indol-2-one]
Inhibitory effect on monoamine oxidase compared to isatin (monoamine oxidase): lower inhibitory effect | Concentration in cecum extracts [1, 6]: 22.14 nmol/g and 29.66 nmol/g | Concentration in brain extracts [1, 7]: 54.77 nmol/g and 76.19 nmol/g and 69.87 nmol/g | Concentration in large intestine (LI) extracts [1, 7]: 45.32 nmol/g and 75.39 nmol/g and 41.71 nmol/g | Concentration in liver extracts [1, 7]: 7.43 nmol/g and 14.12 nmol/g and 15.72 nmol/g | Concentration in plasma [1, 7]: BDL | Concentration in small intestine (SI) extracts [1, 7]: 76.51 nmol/g and 53.50 nmol/g and 66.77 nmol/g | Concentration in brain extracts [1, 8]: 65.73 nmol/g and 37.10 nmol/g and 68.54 nmol/g | Concentration in cecum extracts [1, 8]: 18.19 nmol/g and 12.89 nmol/g and 17.05 nmol/g | Concentration in large intestine (LI) extracts [1, 8]: 30.45 nmol/g and 6.37 nmol/g and 58.67 nmol/g | Concentration in liver extracts [1, 8]: 64.90 nmol/g and 46.68 nmol/g and 86.61 nmol/g | Concentration in plasma [1, 8]: BDL | Concentration in small intestine (SI) extracts [1, 8]: 52.78 nmol/g and 4.63 nmol/g and BDL | Concentration in brain extracts [1, 9]: BDL | Concentration in cecum extracts [1, 9]: 7.06 nmol/g and 19.80 nmol/g and 10.80 nmol/g | Concentration in large intestine (LI) extracts [1, 9]: BDL | Concentration in liver extracts [1, 9]: 63.22 nmol/g and BDL | Concentration in plasma [1, 9]: BDL | Concentration in small intestine (SI) extracts [1, 9]: BDL (2×) and 48.78 nmol/g | Concentration in brain extracts [1, 10]: BDL | Concentration in cecum extracts [1, 10]: 21.81 nmol/g and 17.61 nmol/g and BDL | Concentration in large intestine (LI) extracts [1, 10]: BDL | Concentration in liver extracts [1, 10]: 18.61 nmol/g and BDL and 6.72 nmol/g | Concentration in plasma [1, 10]: BDL (2×) and 15.47 nmol/g | Concentration in small intestine (SI) extracts [1, 10]: BDL (2×) and 24.91 nmol/g | Concentration in brain extracts [1, 11]: BDL | Concentration in cecum extracts [1, 11]: 35.22 nmol/g and BDL and 13.51 nmol/g | Concentration in large intestine (LI) extracts [1, 11]: 18.68 nmol/g and BDL and 33.36 nmol/g | Concentration in liver extracts [1, 11]: BDL | Concentration in plasma [1, 11]: BDL | Concentration in small intestine (SI) extracts [1, 11]: BDL | Presence in the brain ([1]; after oral indole 350 mg/kg): found in the brain | Time of highest concentrations in liver, small intestine and brain ([1]; after oral indole 350 mg/kg): 1 h | Heavier (13C) isotope of metabolite in brain, liver, cecum, small intestine and colon [2]: detected | Concentration in brain [3]: significant dose-dependent increase | Concentration in plasma [3]: significant dose-dependent increase | Inhibitory effect on acetylcholinesterase compared to isatin (acetylcholinesterase): lower inhibitory effect

c1ccc2[nH]ccc2c1 [Indole, indole]
Concentration in cecum extracts [1, 6]: 37.54 nmol/g and 22.73 nmol/g | Concentration in brain extracts [1, 7]: 59.54 nmol/g and 147.88 nmol/g and 22.10 nmol/g | Concentration in large intestine (LI) extracts [1, 7]: 119.49 nmol/g and 137.49 nmol/g and 66.42 nmol/g | Concentration in liver extracts [1, 7]: 156.1 nmol/g and 54.56 nmol/g and 3.21 nmol/g | Concentration in plasma [1, 7]: 170.99 nmol/g and 96.67 nmol/g and 15.31 nmol/g | Concentration in brain extracts [1, 8]: 4.75 nmol/g and BDL and 5.84 nmol/g | Concentration in cecum extracts [1, 8]: 29.05 nmol/g and 32.96 nmol/g and 48.99 nmol/g | Concentration in large intestine (LI) extracts [1, 8]: 4.64 nmol/g and 2.89 nmol/g and 70.74 nmol/g | Concentration in liver extracts [1, 8]: BDL | Concentration in plasma [1, 8]: 6.73 nmol/g and 0.00 nmol/g and 10.19 nmol/g | Concentration in brain extracts [1, 9]: BDL | Concentration in cecum extracts [1, 9]: 7.99 nmol/g and 0.00 nmol/g and 24.86 nmol/g | Concentration in large intestine (LI) extracts [1, 9]: 2.89 nmol/g and 7.18 nmol/g and 278.22 nmol/g | Concentration in liver extracts [1, 9]: 67.36 nmol/g and 3.05 nmol/g and 414.1 nmol/g | Concentration in plasma [1, 9]: 0.00 nmol/g (2×) and 5.68 nmol/g | Concentration in brain extracts [1, 10]: BDL and 1.41 nmol/g | Concentration in cecum extracts [1, 10]: 0.00 nmol/g and 12.47 nmol/g | Concentration in large intestine (LI) extracts [1, 10]: 30.39 nmol/g and 11.51 nmol/g and 34.93 nmol/g | Concentration in liver extracts [1, 10]: 8.76 nmol/g and 0.00 nmol/g and 97.7 nmol/g | Concentration in plasma [1, 10]: 0.00 nmol/g (2×) and 3.97 nmol/g | Concentration in brain extracts [1, 11]: BDL | Concentration in cecum extracts [1, 11]: 0.00 nmol/g | Concentration in large intestine (LI) extracts [1, 11]: 171.66 nmol/g and 231.01 nmol/g and 24.29 nmol/g | Concentration in liver extracts [1, 11]: 80.7 nmol/g and 58.6 nmol/g and BDL | Concentration in plasma [1, 11]: 0.00 nmol/g | Tmax ([1]; po, read-out: Time of peak plasma concentration (converted)): 30 min | Presence in the brain ([1]; after oral indole 350 mg/kg): found in the brain | Highest indole concentration (liver) ([1]; liver, 2 h after ingestion of indole 350 mg/kg): 414.15 nmol/g | Time within which indole is metabolized ([1]; oral indole 350 mg/kg): up to 6 h | CYP2E1 expression (CYP2E1): mainly unchanged | CBR1 expression (CBR1; liver and brain, any time point after indole administration): unaffected | CBR1 expression level (CBR1; liver, after indole administration): not altered | CYP1A2 expression (CYP1A2): significant increase | CBR3 expression (CBR3; brain, 2 h after indole administration): slight increase | CBR3 expression increase (CBR3; 4 h after indole administration): 12 times | CBR3 expression increase (CBR3; 6 h after indole administration): 8 times

O=C1Cc2ccccc2N1 [Indolin-2-one, 1,3-dihydro-2H-indol-2-one]
Blood–brain barrier crossing [4]: cross the blood–brain barrier | Tmax ([1]; po): 30 min | Heavier (13C) isotope of metabolite in brain, liver, cecum, small intestine and colon [2]: detected | Effect of low doses in the blood ([5]; 10 mg/kg): reduced blood pressure and mild sedation | Effect of high doses ([5]; 100 mg/kg): coma and death

O=C1Nc2ccccc2C1=O [Isatin, 3-hydroxy-2H-indol-2-one]
Isatin in the brain ([4]; after systemic administration): up to 5 nmol/g | Blood–brain barrier crossing [4]: cross the blood–brain barrier | Tmax [1]: 360 min | Tmax ([1]; po): 30 min
